Broadly, the ED50 is the dose that gives a 50% effect, or the effect in half of the subjects. In general, IC50 refers to the midpoint of a concentration-inhibition curve. By melting point is commonly meant the temperature, or range, at which the solid turns liquid.

In data set [1] the test system is maximal electroshock induced convulsion. Nature of the data set: Maximal Electroshock-induced Seizure (MES) test. The format is in vivo, mice. The settings on record: Mus musculus, iv, anticonvulsant activity against maximal electroshock induced convulsion. The source says:
The compounds of the present invention may be tested for […] anticonvulsant activity after iv or ip injection using a number of anticonvulsant tests in mice (audiogenic seizure model in DBA-2 mice. pentylenetetrazol-induced seizures in mice, maximum electroshock seizure test (MES)). The anticonvulsant activity of the AMPA antagonists may be evaluated in the Maximal Electroshock-induced Seizure (MES) test. Seizures are induced by application of current (50 mA, 60 pulses/sec, […], 1 sec duration, d.c.) through saline-coated corneal electrodes using a Ugo Basile ECT device (Model 7801). […] A tonic seizure is defined as a hindlimb extension in excess of 90 degrees from the plane of the body. Results are treated in a quintal manner. The potency of antagonism or potentiation for these compounds were determined by electrophysiological assay. Potencies of selective compounds described above in inhibiting or modulating AMPA receptors expressed in oocyte and their anticonvulsant activity against maximal electroshock induced convulsion are shown in Table 1.

For another data set, the system named is AMPA receptors. Nature of the data set: electrophysiological assay, AMPA receptors expressed in oocyte. Type of data set: cell-based, rat. As to conditions: inhibiting or modulating AMPA receptors expressed in oocyte, read-out: AMPA IC50. The text has this: The compounds of the present invention may be assessed by electrophysiological assays in Xenopus oocytes expressing rat whole brain poly(A)^+ RNA (see Keana et. al. J. Med. Chem. 38: 4367-4379 (1995)) or in cultured rat cortical neurons (see Woodward et. al. Mol. Pharmacol. 47: 568-581 (1995)) for AMPA receptor activity. Compounds which are useful for treating or preventing the adverse consequences of stroke, hypoglycemia, neurodegenerative disorders, anxiety, epilepsy or psychosis, or which induce analgesia, will inhibit the currents across the membranes of the oocyte expressing AMPA receptors. However, if the compound potentiates currents across the oocyte membrane, then the compound is expected to be useful in enhancing cognition or treating schizophrenia or neurodegenerative disease such as Parkinson's Disease.
The potency of antagonism or potentiation for these compounds were determined by electrophysiological assay. Potencies of selective compounds described above in inhibiting or modulating AMPA receptors expressed in oocyte and their anticonvulsant activity against maximal electroshock induced convulsion are shown in Table 1.

Molecules are shown by their SMILES. Read-outs that look alike come from different tables or passages of the source.

For `CC(C)n1c(=O)nc(-c2ccc3c(c2)OCO3)c2cc3oc(=O)n(C)c3cc21` [1-Isopropyl-4-(3,4-methylenedioxyphenyl)-8-methyl-7-oxo-oxazol[5,4-g]quinazolin-2(1H)-one], the ED50 in data set [1] stood at 1.5 mg/kg. Also, the IC50 with AMPA receptors was 2 µM.

On to `CC(C)n1c(=O)nc(-c2ccc3c(c2)OCO3)c2cc3c(cc21)OCO3` [1-Isopropyl-6,7-methylenedioxy-4-(3,4-methylenedioxyphenyl)quinazolin-2(1H)-one], for which the ED50 in data set [1] stood at 3 mg/kg. The IC50 with AMPA receptors was 2.8 µM.

For `CN(C)CCOc1nc(-c2ccc3c(c2)OCO3)c2cc3c(cc2n1)OCO3.Cl` [6,7-methylenedioxy-4-(3,4-methylenedioxyphenyl)-2-(2-(dimethylamino)ethoxy)quinazoline hydrochloride], the ED50 in data set [1] was 10 mg/kg. The half-maximal inhibitory concentration (IC50) with AMPA receptors (hydrochloride) is 10 µM.

With `CCn1c(=O)nc(-c2ccc3c(c2)OCO3)c2cc3c(cc21)OCO3` [1-Ethyl-6,7-methylenedioxy-4-(3,4-methylenedioxyphenyl)quinazolin-2(1H)-one], the ED50 in data set [1] came to 3.4 mg/kg. In addition, the IC50 in the data set with AMPA receptors came out at 5 µM.

`CN(C)CCOc1nc(-c2ccc3c(c2)OCO3)c2cc3c(cc2n1)OCO3` [6,7-Methylenedioxy-4-(3,4-methylenedioxyphenyl)-2-(2-(dimethylamino)ethoxy)-quinazoline]: in data set [1], the 50% effective dose (ED50) amounted to 4 mg/kg. In the data set on AMPA receptors, the IC50 was 2.5 µM.

`CC(CN(C)C)Oc1nc(-c2ccc3c(c2)OCO3)c2cc3c(cc2n1)OCO3` (stereo not shown) returned a melting point of 172 to 175 °C.

Consider `CC(C)n1c(=O)nc(-c2ccc3c(c2)OC(F)(F)O3)c2cc3c(cc21)OCO3` [1-Isopropyl-6,7-methylenedioxy-4-(3,4-difluoromethylenedioxyphenyl)quinazolin-2(1H)-one], for which the melting point is 243 to 245 °C. Also, the IC50 in the data set on AMPA receptors came out at 2 µM.

Take `O=c1nc(-c2ccc3c(c2)OCO3)c2cc3c(cc2[nH]1)OCO3`: the melting point was greater than 300 °C.

As for `CC(C)n1c(=O)nc(-c2ccc(N(C)C)cc2)c2cc3c(cc21)OCO3`, the melting point lay in the range of 240 to 245 °C.

Turning to `CN(C)CCn1nc(-c2ccc3c(c2)OCO3)c2cc3c(cc2c1=O)OCO3` [2-[2-(Dimethylamino)ethyl]-4-(3,4-methylenedioxyphenyl)-6,7-methylenedioxy-1(2H)-phthalazinone], the ED50 in data set [1] was 3.5 mg/kg. Also, the IC50 in the data set on AMPA receptors is 5 µM.

With `C#CCn1c(=O)nc(-c2ccc3c(c2)OCO3)c2cc3c(cc21)OCO3` [1-(2-Propynyl)-6,7-methylenedioxy-4-(3,4-methylenedioxyphenyl)quinazolin-2(1H)-one], the melting point was 235 to 240 °C. In addition, in the data set on AMPA receptors, the 50% inhibitory concentration (IC50) was 7 µM.

Turning to `CCn1c(=O)nc(-c2ccc3c(c2)OCCO3)c2cc3c(cc21)OCO3` [1-Ethyl-6,7-methylenedioxy-4-(3,4-ethylenedioxyphenyl)quinazolin-2(1H)-one], the ED50 in data set [1] turned out to be 3 mg/kg. In addition, the IC50 in the data set with AMPA receptors worked out at 1.1 µM.

`CC(C)n1c(=O)nc(-c2ccc3c(c2)CCC3)c2cc3c(cc21)OCO3` [1-Isopropyl-6,7-methylenedioxy-4-(5-indanyl)quinazolin-2(1H)-one] gave a melting point of 73 to 75 °C. The IC50 in the data set on AMPA receptors is 5 µM.

With `Cn1ccnc1SCc1nc(-c2ccc3c(c2)OCO3)c2cc3c(cc2n1)OCO3` [2-[(1-Methyl-2-imidazolyl)thio]methyl-6,7-methylenedioxy-4-(3,4-methylenedioxy-phenyl)quinazoline], the melting point fell in the range of 155 to 160 °C. For the same compound, the IC50 in the data set with AMPA receptors stood at 7 µM.

On to `[O-][n+]1c(CCl)nc2cc3c(cc2c1-c1ccc2c(c1)OCO2)OCO3` [2-Chloromethyl-6,7-methylenedioxy-4-(3,4-methylenedioxy-phenyl)quinazoline 3-oxide], for which the ED50 in data set [1] was 3.1 mg/kg. Besides, the 50% inhibitory concentration (IC50) in the data set with AMPA receptors is 8 µM.

As for `[O-][n+]1cnc2cc3c(cc2c1-c1ccc2c(c1)OCO2)OCO3` [6,7-Methylenedioxy-4-(3,4-methylenedioxyphenyl)quinazoline 3-oxide], the ED50 in data set [1] worked out at 2.5 mg/kg. The IC50 in the data set on AMPA receptors was 7 µM.

Turning to `c1ncn(Cc2nc(-c3ccc4c(c3)OCO4)c3cc4c(cc3n2)OCO4)n1` [6,7-Methylenedioxy-2-(1,2,4-triazol-1-yl)methyl-4-(3,4-methylenedioxyphenyl)quinazoline], the melting point lay within 195 to 198 °C. For the same compound, the 50% inhibitory concentration (IC50) in the data set on AMPA receptors stood at 9 µM.

Consider `c1nc(-c2ccc3c(c2)OCO3)c2cc3c(cc2n1)OCO3` [6,7-Methylenedioxy-4-(3,4-methylenedioxyphenyl)quinazoline], for which the melting point lay in the range of 180 to 185 °C. Besides, in the data set with AMPA receptors, the IC50 came out at 11 µM.

`COc1nc(-c2ccc3c(c2)OCO3)c2cc3c(cc2n1)OCO3` had a melting point of 216 to 223 °C.

Compound `c1ccc(-c2nc(-c3ccc4c(c3)OCO4)c3cc4c(cc3n2)OCO4)cc1` gave a melting point of 225 to 230 °C.

Regarding `O=c1nc(-c2ccccc2)c2cc3c(cc2[nH]1)OCO3`, the melting point was 351 to 354 °C.

`CC(C)n1c(=O)nc(-c2cnc3ccccc3c2)c2cc3c(cc21)OCO3` [1-Isopropyl-6,7-methylenedioxy-4-(3-quinolyl)quinazolin-2(1H)-one]: the melting point lay in the range of 279 to 281 °C. Further, the IC50 in the data set with AMPA receptors was 8 µM.

Turning to `CCCn1c(=O)oc2cc3c(-c4ccc5c(c4)OCO5)nc(=O)n(C(C)C)c3cc21` [1-Isopropyl-4-(3,4-methylenedioxyphenyl)-8-propyl-7-oxo-oxazol[5,4-g]quinazolin-2(1H)-one], the melting point fell in the range of 110 to 145 °C. In addition, in the data set with AMPA receptors, the IC50 came to 5 µM.

In turn, `CC(C)n1c(=O)nc(-c2ccc3c(c2)OCCO3)c2cc3c(cc21)OCO3` [1-Isopropyl-6,7-methylenedioxy-4-(3,4-ethylenedioxyphenyl)-quinazolin-2(1H)-one] displayed a melting point of 214 to 217 °C. Further, in the data set with AMPA receptors, the half-maximal inhibitory concentration (IC50) turned out to be 1.8 µM.

With `c1cn(Cc2nc(-c3ccc4c(c3)OCO4)c3cc4c(cc3n2)OCO4)cn1`, the melting point was 182 to 185 °C.

Turning to `NCCCc1nc(-c2ccc3c(c2)OCO3)c2cc3c(cc2n1)OCO3` [2-(3-aminopropyl)-6,7-methylenedioxy-4-(3,4-methylenedioxyphenyl)quinazoline], in the data set on AMPA receptors, the IC50 was found to be 12 µM.

In turn, `CC(CN(C)C)On1c(=O)nc(-c2ccc3c(c2)OCO3)c2cc3c(cc21)OCO3` (stereo not shown) registered a melting point of 160 to 165 °C.

`NCCOc1nc(-c2ccc3c(c2)OCO3)c2cc3c(cc2n1)OCO3` [2-(2-Aminoethoxy)-6,7-methylenedioxy-4-(3,4-methylenedioxyphenyl)quinazoline]: the melting point lay within 162 to 167 °C. In the data set on AMPA receptors, the IC50 is 12 µM.

Compound `CC(C)n1c(=O)nc(-c2ccc3ocnc3c2)c2cc3c(cc21)OCO3` [1-Isopropyl-6,7-methylenedioxy-4-(5-benzoxazole)quinazolin-2(1H)-one] gave a melting point of 241 to 243 °C. The IC50 in the data set with AMPA receptors came to 13 µM.

`Cn1c(=O)nc(-c2ccccc2)c2cc3c(cc21)OCO3` returned a melting point of 253 to 255 °C.

With `Clc1nc(-c2ccc3c(c2)OCO3)c2cc3c(cc2n1)OCO3` [2-Chloro-4-(3,4-methylenedioxyphenyl)-6,7-methylendioxyquinazoline], in the data set on AMPA receptors, the IC50 is 6 µM.

`CN(C)CCc1nc(-c2ccc3c(c2)OCO3)c2cc3c(cc2n1)OCO3` [2-(2-Dimethylaminoethyl)-4-(3,4-methylenedioxyphenyl)-6,7-methylenedioxyquinazoline]: the concentration for half-maximal inhibition (IC50) in the data set with AMPA receptors is 8 µM.

As to `O=c1nc(-c2ccc3c(c2)OCO3)c2cc3c(cc2n1CCN1CCOCC1)OCO3` [4-(4,4-methylenedioxyphenyl)-6,7-methylenedioxy-1-(2-morpholinylethyl)-quinazolin-2(1H)-one], the IC50 in the data set with AMPA receptors came out at 4 µM.

In the case of `CC(=O)OCc1nc(-c2ccc3c(c2)OCO3)c2cc3c(cc2n1)OCO3`, the melting point was in the range of 144 to 147 °C.

As for `CC(C)(O)c1nc(-c2ccc3c(c2)OCO3)c2cc3c(cc2n1)OCO3` [6,7-methylenedioxy-4-(3,4-methylenedioxyphenyl)-2-(1-hydroxy-1-methylethyl)quinazoline], in the data set with AMPA receptors, the IC50 amounted to 6 µM.

`c1cc2c(cc1-c1nc(OCC3CC3)nc3cc4c(cc13)OCO4)OCO2`: the melting point lay in the range of 175 to 182 °C.

Take `O=c1nc(-c2ccc3c(c2)OCO3)c2cc3c(cc2n1CCN1CCCC1)OCO3` [1-(2-Pyrrolidinylethyl)-6,7-methylenedioxy-4(3,4-methylenedioxyphenyl)quinazolin-2(1H)-one]: the IC50 on AMPA receptors amounted to 1.6 µM.

Regarding `CCn1nc(-c2ccc3c(c2)OCO3)c2cc3c(cc2c1=O)OCO3` [2-Ethyl-4-(3,4-methylenedioxyphenyl)-6,7-methylenedioxy-1(2H) -phthalazinone], the IC50 in the data set with AMPA receptors was 3 µM.
